Assay results reported in patent US10975037B2 (priority 2018, dated 2021).
Structures can show the parent of a compound that is named as a salt. Where two headings read alike, the source gives them in different places.

Key:
[1] = biological target: human RORγt ligand binding domain (RORγt LBD) (Homo sapiens (Human), UniProt P51449); assay: RORγt ThermoFluor® assay (thermal shift binding); conditions: ThermoFluor® Assay, Kd
Experimental: This approach is applicable to a wide variety of systems, and rigorous in theoretical interpretation through quantitation of equilibrium binding constants (KD).
The shift in the melting point described as a ΔTm is proportional to the concentration and affinity of the ligand.
RORγt ThermoFluor® Assay Construct
Reference wells contained RORγt without compounds, and the assay conditions were as follows: • 0.065 mg/mL RORγt • 60 μM 1,8-ANS • 100 mM Hepes, pH 7.0 • 10 mM NaCl • 2.5 mM GSH • 0.002% Tween-20
Project compounds were arranged in a pre-dosed mother plate (Greiner Bio-one) wherein compounds are serially diluted in 100% DMSO by 1:2 from a high concentration of 10 mM over 12 columns within a series (column 12 is a reference well containing DMSO, no compound). The compounds were robotically dispensed directly into assay plates (1×=46 nL) using a Hummingbird capillary liquid handling instrument (Digilab). Following compound dispense, protein and dye in buffer was added to achieve the final assay volume of 3 μL, followed by 1 μL of silicone oil.

full-length human RORγt = full-length human RORγt (Homo sapiens (Human), UniProt P51449); assay: RORγt (full-length human) reporter assay, conditions A or B, HEK293T cells; type: cell-based; conditions: for IC50: RORγt (FL) Reporter Assay A or B, IC50, HEK293T cells; for inhibition at 6 µM: read-out: RORγt (FL) Reporter Assay A or B, % inhibition @ 6 μM, 6 μM compound concentration; for inhibition at 2 µM: 2 μM compound concentration
Sequence of full-length human RORγt (P51449 other isoform, or with tags, fused parts or gaps): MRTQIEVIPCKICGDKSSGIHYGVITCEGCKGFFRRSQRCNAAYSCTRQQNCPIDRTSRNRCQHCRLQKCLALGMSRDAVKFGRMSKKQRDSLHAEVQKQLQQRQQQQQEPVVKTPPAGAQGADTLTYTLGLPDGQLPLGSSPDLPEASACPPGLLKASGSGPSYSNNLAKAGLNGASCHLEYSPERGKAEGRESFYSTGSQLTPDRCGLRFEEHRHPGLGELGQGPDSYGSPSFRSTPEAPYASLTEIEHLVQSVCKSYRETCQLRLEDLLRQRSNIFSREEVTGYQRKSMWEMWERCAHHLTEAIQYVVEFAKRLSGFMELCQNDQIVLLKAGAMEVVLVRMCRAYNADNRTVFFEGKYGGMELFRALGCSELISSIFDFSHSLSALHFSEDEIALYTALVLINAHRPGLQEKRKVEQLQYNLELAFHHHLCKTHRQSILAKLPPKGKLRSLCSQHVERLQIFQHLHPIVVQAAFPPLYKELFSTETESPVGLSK
Experimental: RORγt (Full-Length Human) Reporter Assay:
(§1) HEK293T cells were plated at 35,000 per well in 96-well plate in medium of DMEM with 10% FBS. […] After overnight (16 to 20 hours) incubation, media were removed and cells were lysed with 50 L Glo Lysis Buffer (Promega) for 10-15 minutes followed by 10 minute incubation with 50 μL Dual Glo reagent (Promega) at room temperature. Firefly luciferase luminescence was measured using a BMG Pherastar plate reader. To each well, 50 μL Stop and Glo reagent was added and incubated for 10 minutes at room temperature. Renilla luminescence was measured using a BMG Pherastar plate reader. To calculate the effect of compounds on RORγt activity, firefly values were normalized against values of DMSO only and values of reference compound at saturating concentration, then further normalized against Renilla signals. IC50s were generated by plotting final Renilla normalized data against compound concentration and percent inhibition was calculated against DMSO control.
as §1, with “at 8750 cells” for “at 35,000”, “in 384-well” for “in 96-well”, “with 20” for “with 50”, “well, 20” for “well, 50”

[2] = HEK-293T, read-out: RORγt (FL) Reporter Assay A or B, % inhibition
[3] = HEK-293T, 3 μM compound concentration (footnote *), read-out: RORγt (FL) Reporter Assay A or B, % inhibition

Sequence of human RORγt ligand binding domain (RORγt LBD) (P51449 other isoform, or with tags, fused parts or gaps): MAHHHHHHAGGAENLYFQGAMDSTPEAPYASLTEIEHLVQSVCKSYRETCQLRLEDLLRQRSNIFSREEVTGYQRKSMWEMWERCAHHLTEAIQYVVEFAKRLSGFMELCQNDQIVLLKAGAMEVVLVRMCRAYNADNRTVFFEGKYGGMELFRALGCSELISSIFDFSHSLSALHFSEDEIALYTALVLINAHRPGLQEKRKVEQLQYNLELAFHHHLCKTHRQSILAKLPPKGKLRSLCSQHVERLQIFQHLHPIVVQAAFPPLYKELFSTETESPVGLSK

IC50 (full-length human RORγt) [nM] | inhibition at 2 µM (full-length human RORγt; [2]) [%] | SMILES | further results
1.6 |  | CCn1nc(C(=O)NC[C@@H]2CC[C@@H](S(C)(=O)=O)CO2)c(Cl)c1-c1ccc(CC(C)(C)C(F)(F)F)cc1OC(F)F (racemic) [Example 14, 4-Chloro-5-(2-(difluoromethoxy)-4-(3,3,3-trifluoro-2,2-dimethylpropyl)phenyl)-1-ethyl-N-(((2RS,5SR)-5-(methylsulfonyl)tetrahydro-2H-pyran-2-yl)methyl)-1H-pyrazole-3-carboxamide] | Kd [1]: 0.14 nM; inhibition at […] (full-length human RORγt; HEK-293T, 0.22 μM compound concentration (footnote *******), read-out: RORγt (FL) Reporter Assay A or B, % inhibition): 99%
 | 88 | CCn1nc(C(=O)NC[C@]2(O)CC[C@@H](S(C)(=O)=O)CC2)c(Cl)c1-c1ccc(CC(C)(C)C(F)(F)F)cc1OC [Example 45, 4-Chloro-1-ethyl-N-(((1s,4s)-1-hydroxy-4-(methylsulfonyl)cyclohexyl)methyl)-5-(2-methoxy-4-(3,3,3-trifluoro-2,2-dimethylpropyl)phenyl)-1H-pyrazole-3-carboxamide] | 
 | 96 | [2H]C([2H])([2H])Oc1cc(CC(C)(C)C(F)(F)F)ccc1-c1c(Cl)c(C(=O)NC[C@]2(O)CC[C@@H](S(C)(=O)=O)CC2)nn1CC [Example 192, 4-Chloro-1-ethyl-N-(((1s,4s)-1-hydroxy-4-(methylsulfonyl)cyclohexyl)methyl)-5-(2-(methoxy-d3)-4-(3,3,3-trifluoro-2,2-dimethylpropyl)phenyl)-1H-pyrazole-3-carboxamide] | 

The remaining lines, values behind:

SMILES | IC50 (full-length human RORγt) [nM] | inhibition at 2 µM (full-length human RORγt; [2]) [%] | further results
CCn1nc(C(=O)NC[C@H]2CC[C@@H](S(C)(=O)=O)CO2)c(Cl)c1-c1ccc(N[C@H](C)C(F)(F)F)cc1OC (relative stereo) [Example 17, 4-Chloro-1-ethyl-5-(2-methoxy-4-(((R)-1,1,1-trifluoropropan-2-yl)amino)phenyl)-N-(((2R*,5R*)-5-(methylsulfonyl)tetrahydro-2H-pyran-2-yl)methyl)-1H-pyrazole-3-carboxamide] | 2200 |  | Kd [1]: 1300 nM; inhibition at 6 µM (full-length human RORγt; HEK-293T): 67%
CCn1nc(C(=O)NC[C@@H]2CC[C@H](S(C)(=O)=O)CO2)c(Cl)c1-c1ccc(N[C@H](C)C(F)(F)F)cc1OC (relative stereo) [Example 18, 4-Chloro-1-ethyl-5-(2-methoxy-4-(((R)-1,1,1-trifluoropropan-2-yl)amino)phenyl)-N-(((2S*,5S*)-5-(methylsulfonyl)tetrahydro-2H-pyran-2-yl)methyl)-1H-pyrazole-3-carboxamide] | 830 |  | Kd [1]: 240 nM; inhibition at 6 µM (full-length human RORγt; HEK-293T): 102%
CCn1nc(C(=O)NC[C@H]2CC[C@H](S(C)(=O)=O)CC2)c(Cl)c1-c1ccc(OCC2CC2(F)F)cc1OC (single isomer, unassigned) [Example 211, 4-Chloro-5-(4-(((R*)-2,2-difluorocyclopropyl)methoxy)-2-methoxyphenyl)-1-ethyl-N-(((1r,4R)-4-(methylsulfonyl)cyclohexyl)methyl)-1H-pyrazole-3-carboxamide] |  | 66 | 
CCn1nc(C(=O)NC[C@]2(N)CC[C@H](S(C)(=O)=O)CC2)c(Cl)c1-c1ccc(CC(C)(C)C(F)(F)F)cc1OC(F)F [Example 20, N-(((1r*,4r*)-1-Amino-4-(methylsulfonyl)cyclohexyl)methyl)-4-chloro-5-(2-(difluoromethoxy)-4-(3,3,3-trifluoro-2,2-dimethylpropyl)phenyl)-1-ethyl-1H-pyrazole-3-carboxamide 2,2,2-trifluoroacetic Acid Salt] |  |  | inhibition at 3 µM (full-length human RORγt; [3]): 15%
CCn1nc(C(=O)NC[C@]2(O)CC[C@@H](S(C)(=O)=O)CC2)c(Cl)c1-c1ccc(C[C@@H](C)C(F)(F)F)cc1OC [Example 36, 4-Chloro-1-ethyl-N-(((1s,4S)-1-hydroxy-4-(methylsulfonyl)cyclohexyl)methyl)-5-(2-methoxy-4-((R)-3,3,3-trifluoro-2-methylpropyl)phenyl)-1H-pyrazole-3-carboxamide] |  | 101 | 
CCn1nc(C(=O)NC[C@]2(O)CC[C@@H](S(C)(=O)=O)CC2)c(Cl)c1-c1ccc(C(C)(O)CCC(F)(F)F)cc1OC(F)F (stereo partly drawn) [Example 101, 4-Chloro-5-(2-(difluoromethoxy)-4-(5,5,5-trifluoro-2-hydroxypentan-2-yl)phenyl)-1-ethyl-N-(((1s,4s)-1-hydroxy-4-(methylsulfonyl)cyclohexyl)methyl)-1H-pyrazole-3-carboxamide] |  |  | inhibition at 3 µM (full-length human RORγt; [3]): 115%
CCn1nc(C(=O)NC[C@]2(O)CC[C@@H](S(C)(=O)=O)CC2)c(Cl)c1-c1ccc(C(O)C(C)(C)C(F)(F)F)cc1OC(F)F (stereo partly drawn) [Example 106, 4-Chloro-5-(2-(difluoromethoxy)-4-(3,3,3-trifluoro-1-hydroxy-2,2-dimethylpropyl)phenyl)-1-ethyl-N-(((1s,4s)-1-hydroxy-4-(methylsulfonyl)cyclohexyl)methyl)-1H-pyrazole-3-carboxamide] |  |  | inhibition at 1 µM (full-length human RORγt; HEK-293T, 1 μM compound concentration (footnote ***), read-out: RORγt (FL) Reporter Assay A or B, % inhibition): 115%
CCn1nc(C(=O)NC[C@]2(O)CC[C@@H](S(C)(=O)=O)CC2)c(Cl)c1-c1ccc(C(O)C2(C(F)(F)F)CC2)cc1OC(F)F (stereo partly drawn) [Example 109, 4-Chloro-5-(2-(difluoromethoxy)-4-(hydroxy(1-(trifluoromethyl)cyclopropyl)methyl)phenyl)-1-ethyl-N-(((1s,4s)-1-hydroxy-4-(methylsulfonyl)cyclohexyl)methyl)-1H-pyrazole-3-carboxamide] |  |  | inhibition at 3 µM (full-length human RORγt; [2]): 88%
CCOC(=O)[C@]1(CNC(=O)c2nn(CC)c(-c3ccc(CC(C)(C)C(F)(F)F)cc3OC(F)F)c2Cl)CC[C@H](S(C)(=O)=O)CC1 [Example 118, Ethyl (1s*,4s*)-1-((4-chloro-5-(2-(difluoromethoxy)-4-(3,3,3-trifluoro-2,2-dimethylpropyl)phenyl)-1-ethyl-1H-pyrazole-3-carboxamido)methyl)-4-(methylsulfonyl)cyclohexane-1-carboxylate] | 2.4 | 103 | 
CCn1nc(C(=O)NC[C@]2(O)CC[C@@H](S(C)(=O)=O)CC2)c(C)c1-c1ccc(C[C@@H](C)C(F)(F)F)cc1OC(F)F [Example 142, 5-(2-(Difluoromethoxy)-4-((R)-3,3,3-trifluoro-2-methylpropyl)phenyl)-1-ethyl-N-(((1s,4S)-1-hydroxy-4-(methylsulfonyl)cyclohexyl)methyl)-4-methyl-1H-pyrazole-3-carboxamide] |  |  | inhibition at […] (full-length human RORγt; HEK-293T, 0.33 μM compound concentration (footnote *****), read-out: RORγt (FL) Reporter Assay A or B, % inhibition): 87%
CCn1nc(C(=O)NC[C@]2(O)CC[C@@H](S(C)(=O)=O)CC2)c(Cl)c1-c1ccc(CCC(F)(F)F)cc1C(F)(F)F [Example 170, 4-Chloro-1-ethyl-N-(((1s,4s)-1-hydroxy-4-(methylsulfonyl)cyclohexyl)methyl)-5-(2-(trifluoromethyl)-4-(3,3,3-trifluoropropyl)phenyl)-1H-pyrazole-3-carboxamide] | > 2000 | 5 | 
[2H]C([2H])([2H])Oc1cc(CC(C)(C)C(F)(F)F)ccc1-c1c(Cl)c(C(=O)NC[C@H]2CC[C@H](S(C)(=O)=O)CC2)nn1CC [Example 193, 4-Chloro-1-ethyl-5-(2-(methoxy-d3)-4-(3,3,3-trifluoro-2,2-dimethylpropyl)phenyl)-N-(((1r,4r)-4-(methylsulfonyl)cyclohexyl)methyl)-1H-pyrazole-3-carboxamide] |  |  | inhibition at 0.67 µM (full-length human RORγt; HEK-293T, 0.67 μM compound concentration (footnote ****), read-out: RORγt (FL) Reporter Assay A or B, % inhibition): 93%
CCn1nc(C(=O)NC[C@H]2CC[C@H](S(C)(=O)=O)CC2)c(Cl)c1-c1ccc(OCC2CC2(F)F)cc1OC (stereo partly drawn) [Example 209, 4-Chloro-5-(4-((2,2-difluorocyclopropyl)methoxy)-2-methoxyphenyl)-1-ethyl-N-(((1r,4r)-4-(methylsulfonyl)cyclohexyl)methyl)-1H-pyrazole-3-carboxamide] |  | 82 | 
